# From patent US20140094510A1, “NON-AQUEOUS TAXANE NANODISPERSION FORMULATIONS AND METHODS OF USING THE SAME” (Teikoku Pharma USA, Inc., priority 2012, published 2014)
# Assay: Solubility of anhydrous docetaxel in PEG 300 / PEG 400
# Type: physicochemical
# Details: per 1 g PEG 300; ultrasonic dispersion for 5 minutes at 70-80° C.
# Experimental: Formulations of anhydrous docetaxel and either PEG 400 or PEG 300 were prepared and mixed using ultrasonic dispersion for 5 minutes at 70-80° C. 1 g of PEG 400 dissolved 25 mg of anhydrous docetaxel. […] 1 g of PEG 300 dissolved 100 mg of anhydrous docetaxel. Accordingly, PEG 300 was able to better solubilize anhydrous docetaxel.
smiles,measurement,value
"CC(=O)O[C@@]12CO[C@@H]1C[C@H](O)[C@@]1(C)C(=O)[C@H](O)C3=C(C)[C@@H](OC(=O)[C@H](O)[C@@H](NC(=O)OC(C)(C)C)c4ccccc4)C[C@@](O)([C@@H](OC(=O)c4ccccc4)[C@H]21)C3(C)C [anhydrous docetaxel, (2R,3S)—N-carboxy-3-phenylisoserine,Ntert-butyl ester, 13-ester with 5β-20-epoxy-1,2α,4,7β,10β,13α-hexahydroxytax-11-en-9-one 4-acetate 2-benzoate]",amount of anhydrous docetaxel dissolved by 1 g of PEG 300,≥ 100 mg
